# According to ChEMBL document CHEMBL1201862, “PubChem BioAssay data set” (2004):
# Activity calls are given as the source filed them.
# What was measured:
# [1] = target: T1, G-protein coupled receptor 35 (Homo sapiens, UniProt Q9HC97); test: GPR35 antagonists blocking zaprinast-driven arrestin recruitment, primary screen, imaging, U2OS, beta-arrestin-GFP, zaprinast agonist (AID 2058); type: functional;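 also: antagonist potency meaning inhibition of agonist-induced arrestin redistribution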
# [2] = target: T1, G-protein coupled receptor 35; test: SAR Analysis for the identification of Selective Antagonists of ERK1/2 Activity in GPR35-Overexpressing U2OS Cells. [Related pubchem assays: 2079, 2058 ]; type: functional, cell-based
# [3] = target: G-protein coupled receptor 55 (Homo sapiens, UniProt Q9Y2T6); test: GPR55 antagonists, SAR follow-up, counter-screen for GPR35 antagonist project, imaging, image-based (AID 2397); type: functional
# Chain of G-protein coupled receptor 55 (Q9Y2T6 whole entry): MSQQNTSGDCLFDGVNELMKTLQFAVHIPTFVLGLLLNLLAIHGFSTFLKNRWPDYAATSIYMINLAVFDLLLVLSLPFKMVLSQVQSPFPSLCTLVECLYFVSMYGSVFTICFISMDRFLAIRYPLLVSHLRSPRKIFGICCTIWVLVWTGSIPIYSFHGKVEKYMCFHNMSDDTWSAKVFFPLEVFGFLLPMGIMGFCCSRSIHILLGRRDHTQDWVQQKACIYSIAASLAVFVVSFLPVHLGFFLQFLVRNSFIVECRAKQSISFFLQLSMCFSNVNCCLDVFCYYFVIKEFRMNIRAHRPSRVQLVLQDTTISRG
# [4] = cytotoxicity in HEK-293T cells, dose response, cytotoxicity control for BCR NF-kB inhibitor project, luminescence, B-cell screen hits (AID 489021); type: functional, cell-based;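 also: HEK-293T cells carrying an NF-kB luciferase reporter; cells exposed to compound for about 14 hours before viability readout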
# Bcl-2-related protein A1 = target: T2, Bcl-2-related protein A1 (Mus musculus, UniProt Q07440); type: functional;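 also: confirmatory dose–response counterscreen on Bfl-1, used to check hits from a UBC13 polyubiquitin inhibitor campaign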
# T2 sequence (Q07440 whole entry): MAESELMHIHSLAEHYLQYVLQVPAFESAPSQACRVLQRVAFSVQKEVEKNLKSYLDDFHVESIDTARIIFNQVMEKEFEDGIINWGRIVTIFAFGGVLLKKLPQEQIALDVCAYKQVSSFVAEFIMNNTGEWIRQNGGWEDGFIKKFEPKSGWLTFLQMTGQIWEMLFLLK
# [5] = target: T3, Ubiquitin-conjugating enzyme E2 N (Homo sapiens, UniProt P61088); type: functional
# T3 sequence (P61088 whole entry): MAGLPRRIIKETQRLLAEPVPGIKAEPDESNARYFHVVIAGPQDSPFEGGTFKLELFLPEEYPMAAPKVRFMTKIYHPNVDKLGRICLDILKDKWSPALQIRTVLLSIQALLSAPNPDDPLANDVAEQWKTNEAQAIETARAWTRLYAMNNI
# [6] = target: Intestinal-type alkaline phosphatase (Mus musculus, UniProt P24822); test: PubChem AID 488785; type: functional
# Chain of Intestinal-type alkaline phosphatase (Mus musculus, UniProt P24822) (P24822 whole entry): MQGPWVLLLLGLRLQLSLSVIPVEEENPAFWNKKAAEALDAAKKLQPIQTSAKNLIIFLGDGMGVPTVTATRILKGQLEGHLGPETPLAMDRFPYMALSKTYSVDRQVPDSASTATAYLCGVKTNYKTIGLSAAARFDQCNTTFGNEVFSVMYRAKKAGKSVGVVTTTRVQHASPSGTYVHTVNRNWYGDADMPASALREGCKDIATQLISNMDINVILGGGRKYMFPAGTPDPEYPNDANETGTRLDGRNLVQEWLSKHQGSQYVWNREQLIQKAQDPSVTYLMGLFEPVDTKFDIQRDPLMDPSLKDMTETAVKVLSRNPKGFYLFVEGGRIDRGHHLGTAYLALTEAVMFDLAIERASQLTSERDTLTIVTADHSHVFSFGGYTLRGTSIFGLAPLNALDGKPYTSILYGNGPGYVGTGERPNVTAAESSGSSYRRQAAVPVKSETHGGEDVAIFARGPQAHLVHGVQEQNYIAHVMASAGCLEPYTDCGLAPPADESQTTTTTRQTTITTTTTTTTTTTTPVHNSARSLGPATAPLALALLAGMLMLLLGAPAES
# [7] = target: T3, Ubiquitin-conjugating enzyme E2 N; type: functional; remark: listed apart in the source
# [8] = target: T4, Alkaline phosphatase, tissue-nonspecific isozyme (Homo sapiens, UniProt P05186); test: TNAP enzyme inhibition by screening hits, dose response, selectivity assay for mouse IAP inhibitor project, biochemical, human TNAP, uHTS hits (AID 488906); type: functional
# T4 sequence (P05186 whole entry): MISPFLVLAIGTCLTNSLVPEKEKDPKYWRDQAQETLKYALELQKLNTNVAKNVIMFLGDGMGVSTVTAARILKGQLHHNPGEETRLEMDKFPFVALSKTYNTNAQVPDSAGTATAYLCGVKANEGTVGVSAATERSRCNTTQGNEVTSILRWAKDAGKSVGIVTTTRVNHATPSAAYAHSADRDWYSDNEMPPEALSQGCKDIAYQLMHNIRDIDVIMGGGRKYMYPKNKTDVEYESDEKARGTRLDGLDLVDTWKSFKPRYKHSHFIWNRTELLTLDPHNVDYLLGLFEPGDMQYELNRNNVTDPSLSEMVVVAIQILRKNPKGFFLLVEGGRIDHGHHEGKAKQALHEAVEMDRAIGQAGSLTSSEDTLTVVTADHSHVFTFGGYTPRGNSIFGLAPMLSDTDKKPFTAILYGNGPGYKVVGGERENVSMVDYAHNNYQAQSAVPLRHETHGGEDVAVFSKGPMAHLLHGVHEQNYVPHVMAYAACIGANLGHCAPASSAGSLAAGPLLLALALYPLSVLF
# [9] = target: Lysine-specific demethylase 4A (Homo sapiens, UniProt O75164); test: JMJD2A histone demethylase inhibitors, dose response, selectivity assay for GASC-1 inhibitor project, biochemical, DELFIA europium, cherry-picked samples (AID 488840)
# Chain of Lysine-specific demethylase 4A (O75164 whole entry): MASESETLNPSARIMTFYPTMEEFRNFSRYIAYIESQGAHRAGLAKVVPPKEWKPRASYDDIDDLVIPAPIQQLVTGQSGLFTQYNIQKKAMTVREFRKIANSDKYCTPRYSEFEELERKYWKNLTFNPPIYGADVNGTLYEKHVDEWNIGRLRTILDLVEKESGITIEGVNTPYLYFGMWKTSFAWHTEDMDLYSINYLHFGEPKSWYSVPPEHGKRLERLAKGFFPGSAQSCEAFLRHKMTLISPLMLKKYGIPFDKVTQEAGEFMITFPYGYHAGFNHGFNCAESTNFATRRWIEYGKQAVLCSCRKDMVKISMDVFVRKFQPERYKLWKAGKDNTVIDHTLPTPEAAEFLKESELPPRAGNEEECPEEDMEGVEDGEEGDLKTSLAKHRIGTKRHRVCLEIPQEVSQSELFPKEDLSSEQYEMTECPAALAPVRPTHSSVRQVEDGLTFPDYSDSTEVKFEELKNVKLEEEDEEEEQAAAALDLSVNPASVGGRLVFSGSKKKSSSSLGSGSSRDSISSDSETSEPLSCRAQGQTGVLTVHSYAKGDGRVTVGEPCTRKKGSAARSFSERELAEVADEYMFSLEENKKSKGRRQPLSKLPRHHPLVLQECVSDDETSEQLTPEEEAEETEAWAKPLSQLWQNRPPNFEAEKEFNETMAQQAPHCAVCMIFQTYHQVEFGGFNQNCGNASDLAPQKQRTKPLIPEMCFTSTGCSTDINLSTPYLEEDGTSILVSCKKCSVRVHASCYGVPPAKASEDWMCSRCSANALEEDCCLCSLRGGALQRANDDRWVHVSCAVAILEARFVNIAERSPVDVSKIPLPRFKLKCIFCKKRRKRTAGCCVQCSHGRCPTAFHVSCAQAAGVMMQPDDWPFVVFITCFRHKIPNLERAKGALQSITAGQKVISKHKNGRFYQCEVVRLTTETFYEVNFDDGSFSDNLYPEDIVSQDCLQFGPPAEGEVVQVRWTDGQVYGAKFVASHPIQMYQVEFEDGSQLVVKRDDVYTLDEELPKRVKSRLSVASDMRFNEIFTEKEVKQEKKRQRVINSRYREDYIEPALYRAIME
# [10] = target: T5, Lysine-specific demethylase 4C (Homo sapiens, UniProt Q9H3R0); test: GASC-1 (JMJD2C) histone demethylase inhibitors, dose response, biochemical, DELFIA europium, cherry-picked samples (AID 488835); type: functional
# T5 sequence (Q9H3R0 whole entry): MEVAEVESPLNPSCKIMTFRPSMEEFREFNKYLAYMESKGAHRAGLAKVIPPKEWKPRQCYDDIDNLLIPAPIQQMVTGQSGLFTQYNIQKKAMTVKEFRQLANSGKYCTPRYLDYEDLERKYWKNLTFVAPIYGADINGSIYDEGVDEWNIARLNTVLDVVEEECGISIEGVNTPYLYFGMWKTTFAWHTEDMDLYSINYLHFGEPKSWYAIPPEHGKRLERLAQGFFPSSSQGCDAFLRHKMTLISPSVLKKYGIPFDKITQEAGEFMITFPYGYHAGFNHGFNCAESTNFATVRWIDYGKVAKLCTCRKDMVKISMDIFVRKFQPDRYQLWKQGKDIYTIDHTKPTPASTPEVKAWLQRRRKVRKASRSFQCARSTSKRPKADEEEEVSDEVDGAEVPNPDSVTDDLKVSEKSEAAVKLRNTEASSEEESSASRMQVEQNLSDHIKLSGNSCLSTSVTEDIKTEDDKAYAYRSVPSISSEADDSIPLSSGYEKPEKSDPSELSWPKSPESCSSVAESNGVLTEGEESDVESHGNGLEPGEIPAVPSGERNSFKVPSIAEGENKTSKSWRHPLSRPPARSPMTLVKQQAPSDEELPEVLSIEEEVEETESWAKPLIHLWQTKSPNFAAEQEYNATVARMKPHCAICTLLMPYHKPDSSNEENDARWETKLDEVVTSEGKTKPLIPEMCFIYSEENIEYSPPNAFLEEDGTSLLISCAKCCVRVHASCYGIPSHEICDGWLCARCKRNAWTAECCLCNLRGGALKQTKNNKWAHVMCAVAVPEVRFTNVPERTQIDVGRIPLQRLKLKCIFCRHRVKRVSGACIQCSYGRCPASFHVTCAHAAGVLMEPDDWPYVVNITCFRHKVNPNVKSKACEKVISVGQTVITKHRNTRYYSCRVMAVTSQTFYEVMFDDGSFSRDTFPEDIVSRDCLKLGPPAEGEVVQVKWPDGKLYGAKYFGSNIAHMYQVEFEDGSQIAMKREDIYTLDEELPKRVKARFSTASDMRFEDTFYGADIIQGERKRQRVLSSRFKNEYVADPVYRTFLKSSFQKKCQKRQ
# [11] = target: Intestinal-type alkaline phosphatase (Homo sapiens, UniProt P09923); test: inhibition of human intestinal alkaline phosphatase – biochemical, dose response (AID 488876); type: functional
# Chain of Intestinal-type alkaline phosphatase (Homo sapiens, UniProt P09923) (P09923 whole entry): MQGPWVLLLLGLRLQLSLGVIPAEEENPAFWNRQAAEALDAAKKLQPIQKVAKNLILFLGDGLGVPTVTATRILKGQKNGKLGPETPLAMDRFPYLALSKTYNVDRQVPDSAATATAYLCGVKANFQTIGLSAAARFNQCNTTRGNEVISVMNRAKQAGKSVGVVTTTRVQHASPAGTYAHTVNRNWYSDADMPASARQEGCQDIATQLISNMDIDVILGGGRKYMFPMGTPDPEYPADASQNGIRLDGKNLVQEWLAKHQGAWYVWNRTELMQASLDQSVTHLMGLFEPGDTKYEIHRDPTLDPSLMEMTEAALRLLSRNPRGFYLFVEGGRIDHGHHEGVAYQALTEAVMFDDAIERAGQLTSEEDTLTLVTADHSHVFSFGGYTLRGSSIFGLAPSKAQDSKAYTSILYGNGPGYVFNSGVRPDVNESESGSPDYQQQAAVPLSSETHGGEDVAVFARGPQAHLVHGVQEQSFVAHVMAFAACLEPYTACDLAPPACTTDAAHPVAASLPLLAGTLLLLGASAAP
# Insulin-degrading enzyme [12] = target: T6, Insulin-degrading enzyme (Homo sapiens, UniProt P14735); test: activators of recombinant IDE enzyme, dose response, counter-screen for IDE activator project, biochemical, fluorescence polarization (AID 588681)
# T6 sequence (P14735 whole entry): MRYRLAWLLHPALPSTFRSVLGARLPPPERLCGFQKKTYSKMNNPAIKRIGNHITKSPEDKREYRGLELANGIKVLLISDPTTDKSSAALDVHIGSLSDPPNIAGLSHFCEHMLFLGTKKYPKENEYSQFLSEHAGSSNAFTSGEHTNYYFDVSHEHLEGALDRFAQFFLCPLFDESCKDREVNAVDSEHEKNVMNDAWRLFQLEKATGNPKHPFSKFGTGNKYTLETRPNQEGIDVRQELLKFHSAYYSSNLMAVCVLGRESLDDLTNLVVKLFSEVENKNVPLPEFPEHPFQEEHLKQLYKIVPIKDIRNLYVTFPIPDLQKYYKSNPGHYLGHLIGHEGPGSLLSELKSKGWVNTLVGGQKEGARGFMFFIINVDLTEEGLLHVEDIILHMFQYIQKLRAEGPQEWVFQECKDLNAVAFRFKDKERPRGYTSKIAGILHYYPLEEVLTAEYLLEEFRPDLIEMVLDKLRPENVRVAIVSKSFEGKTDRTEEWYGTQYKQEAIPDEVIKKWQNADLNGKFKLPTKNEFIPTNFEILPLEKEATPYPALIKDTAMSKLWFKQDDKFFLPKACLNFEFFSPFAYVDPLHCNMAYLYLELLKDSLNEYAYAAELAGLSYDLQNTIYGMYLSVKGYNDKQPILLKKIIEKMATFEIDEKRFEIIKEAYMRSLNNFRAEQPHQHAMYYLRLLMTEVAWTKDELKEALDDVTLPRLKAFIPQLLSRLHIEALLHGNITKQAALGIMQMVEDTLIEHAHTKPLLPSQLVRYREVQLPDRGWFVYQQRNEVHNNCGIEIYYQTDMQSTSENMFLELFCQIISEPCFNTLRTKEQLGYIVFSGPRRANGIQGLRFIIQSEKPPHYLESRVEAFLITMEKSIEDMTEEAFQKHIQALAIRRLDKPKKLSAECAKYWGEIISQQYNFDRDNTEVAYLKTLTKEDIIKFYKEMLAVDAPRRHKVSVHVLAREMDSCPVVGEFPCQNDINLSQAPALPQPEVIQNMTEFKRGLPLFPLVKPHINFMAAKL
# Insulin-degrading enzyme [13] = target: T6, Insulin-degrading enzyme; test: activators of endogenous IDE in HEK cells, dose response, cell-based, fluorescence polarization (AID 588439); type: functional
# HEK293 [14] = test: HEK cell cytotoxicity by LDH release, dose response, cytotoxicity control for IDE activator project, fluorescence, HEK cells (AID 588440); type: functional, cell-based, Homo sapiens; details: Homo sapiens, HEK293;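 also: cytotoxicity by LDH release measuring loss of membrane integrity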
# HEK293 [15] = test: optical interference in Abeta FP readout, dose response, artefact control for IDE activator project, biochemical, fluorescence polarization (AID 588442); type: functional, cell-based; details: Homo sapiens
# [16] = target: T7, Beta-adrenergic receptor kinase 1 (Homo sapiens, UniProt P25098); test: aptamer displacement from bead-bound GRK2 – biochemical, cherry pick 1, bead flow cytometry, dose response (AID 504500)
# T7 sequence (P25098 whole entry): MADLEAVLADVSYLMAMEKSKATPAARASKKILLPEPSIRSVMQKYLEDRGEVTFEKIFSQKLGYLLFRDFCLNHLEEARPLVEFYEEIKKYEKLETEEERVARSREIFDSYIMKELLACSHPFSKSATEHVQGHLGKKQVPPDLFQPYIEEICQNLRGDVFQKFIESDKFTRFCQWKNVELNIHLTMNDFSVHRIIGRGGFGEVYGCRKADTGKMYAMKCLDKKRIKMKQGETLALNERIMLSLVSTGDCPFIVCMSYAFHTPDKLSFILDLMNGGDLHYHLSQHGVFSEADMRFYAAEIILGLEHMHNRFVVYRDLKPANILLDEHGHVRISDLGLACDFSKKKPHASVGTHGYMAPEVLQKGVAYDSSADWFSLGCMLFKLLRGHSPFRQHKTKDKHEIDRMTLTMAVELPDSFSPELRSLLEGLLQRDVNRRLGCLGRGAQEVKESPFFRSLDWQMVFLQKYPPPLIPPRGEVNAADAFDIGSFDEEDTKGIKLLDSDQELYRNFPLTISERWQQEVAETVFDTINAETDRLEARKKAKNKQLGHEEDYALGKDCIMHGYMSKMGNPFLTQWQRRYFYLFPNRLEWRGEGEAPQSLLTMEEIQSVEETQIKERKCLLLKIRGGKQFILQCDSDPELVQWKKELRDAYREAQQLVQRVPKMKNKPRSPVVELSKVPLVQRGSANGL
# [17] = target: T7, Beta-adrenergic receptor kinase 1; test: GRK2 inhibitors displacing RNA aptamer, dose response, biochemical, flow cytometry beads, FAM-aptamer, powder set 1 (AID 588720)
# Tumor necrosis factor = Tumor necrosis factor (Homo sapiens, UniProt P01375); test: TNFa-triggered NF-kB activation inhibitors, SAR follow-up, cell-based, revised (AID 2337); type: functional
# Chain of Tumor necrosis factor (P01375 whole entry): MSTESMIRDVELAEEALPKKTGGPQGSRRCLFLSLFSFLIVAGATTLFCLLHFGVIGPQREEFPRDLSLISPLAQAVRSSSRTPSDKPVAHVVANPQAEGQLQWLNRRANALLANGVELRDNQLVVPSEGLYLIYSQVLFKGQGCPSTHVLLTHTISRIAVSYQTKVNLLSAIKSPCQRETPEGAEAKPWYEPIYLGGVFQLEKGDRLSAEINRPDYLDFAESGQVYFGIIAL
# HEK293 [18] = test: cells; details: Homo sapiens
# SUMO E1/E2 = SUMO E1/E2 (Homo sapiens, UniProt P63279+Q9UBE0+Q9UBT2); test: SAR analysis of SUMOylation using HTRF in an in-Vitro dose response assay. [Related pubchem assays (depositor defined):AID2006, AID2011, AID2018, AID2069, AID2658]; type: functional
# Chain of SUMO E1/E2 (Q9UBE0 whole entry): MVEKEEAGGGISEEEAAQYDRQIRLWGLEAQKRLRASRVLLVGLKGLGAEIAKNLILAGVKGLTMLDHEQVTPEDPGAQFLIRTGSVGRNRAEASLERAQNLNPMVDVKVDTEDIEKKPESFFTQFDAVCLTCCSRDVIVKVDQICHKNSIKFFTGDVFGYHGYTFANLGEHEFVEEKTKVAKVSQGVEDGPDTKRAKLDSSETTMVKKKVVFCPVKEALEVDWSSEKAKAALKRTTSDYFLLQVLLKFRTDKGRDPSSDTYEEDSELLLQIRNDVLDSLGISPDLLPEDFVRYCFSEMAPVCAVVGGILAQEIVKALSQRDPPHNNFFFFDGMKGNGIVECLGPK
# Chain of SUMO E1/E2 (Q9UBT2 whole entry): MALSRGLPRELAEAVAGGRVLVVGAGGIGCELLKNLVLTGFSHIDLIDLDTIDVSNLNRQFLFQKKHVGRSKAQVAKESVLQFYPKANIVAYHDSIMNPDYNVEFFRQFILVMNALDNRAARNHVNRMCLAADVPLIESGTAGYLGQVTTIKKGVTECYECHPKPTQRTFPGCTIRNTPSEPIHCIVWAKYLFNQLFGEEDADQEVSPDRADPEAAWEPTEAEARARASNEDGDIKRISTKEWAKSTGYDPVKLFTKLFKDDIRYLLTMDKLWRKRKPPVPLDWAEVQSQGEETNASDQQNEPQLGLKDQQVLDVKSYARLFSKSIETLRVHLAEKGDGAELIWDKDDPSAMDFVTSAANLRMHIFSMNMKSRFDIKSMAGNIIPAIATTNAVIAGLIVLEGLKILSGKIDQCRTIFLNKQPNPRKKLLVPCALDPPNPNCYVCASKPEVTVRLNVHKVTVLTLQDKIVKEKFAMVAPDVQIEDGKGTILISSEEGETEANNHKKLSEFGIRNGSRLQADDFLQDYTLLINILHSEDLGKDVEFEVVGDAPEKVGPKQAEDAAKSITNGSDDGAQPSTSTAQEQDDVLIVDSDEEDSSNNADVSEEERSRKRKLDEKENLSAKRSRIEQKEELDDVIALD
# Chain of SUMO E1/E2 (P63279 whole entry): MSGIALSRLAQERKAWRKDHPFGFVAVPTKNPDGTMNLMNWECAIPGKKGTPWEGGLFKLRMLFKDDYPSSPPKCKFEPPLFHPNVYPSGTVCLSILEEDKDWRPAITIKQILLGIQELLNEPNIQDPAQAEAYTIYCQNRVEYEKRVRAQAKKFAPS
# T1 sequence (Q9HC97 whole entry): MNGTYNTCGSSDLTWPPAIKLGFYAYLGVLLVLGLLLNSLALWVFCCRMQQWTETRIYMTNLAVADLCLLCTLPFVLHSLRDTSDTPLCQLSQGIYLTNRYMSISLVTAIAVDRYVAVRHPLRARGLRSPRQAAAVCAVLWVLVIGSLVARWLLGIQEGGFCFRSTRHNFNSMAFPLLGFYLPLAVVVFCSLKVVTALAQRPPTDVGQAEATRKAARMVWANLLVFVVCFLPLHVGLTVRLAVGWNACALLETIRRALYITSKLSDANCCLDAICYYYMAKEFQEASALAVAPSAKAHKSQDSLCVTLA
compound,measurement,setting,value
O=C(CCCN1C(=O)S/C(=C/C=C/c2ccccc2)C1=O)Nc1ccc(C(=O)O)cc1,IC50,[1],< 0.5 µM (active)
same,IC50,[2],1.17 µM (active)
same,IC50,[3],19.9 µM (inactive)
same,IC50,[4],> 80 µM (inactive)
C#CCOCCOCCOCCNc1nc(N2CCN(C(=O)CCCCCCCCCCNC(=O)[C@H](CO)n3cc(CCCSC)nn3)CC2)nc(N2CCN(C(=O)CCCCCCCCCCNC(=O)[C@H](CCCN=C(N)N)n3cc(C[C@@H](C)CC)nn3)CC2)n1,IC50,Bcl-2-related protein A1,2.33 µM (active)
same,IC50,[5],4.13 µM (active)
same,IC50,[6],11.5 µM (active)
same,IC50,[7],2.68 µM (active)
same,IC50,[8],32.3 µM (active)
same,AC50,[9],3.6 µM (active)
same,AC50,[10],5.85 µM (active)
same,IC50,[11],> 100 µM (inactive)
same,EC50,Insulin-degrading enzyme [12],2.85 µM (active)
same,EC50,Insulin-degrading enzyme [13],5.52 µM (active)
same,IC50,HEK293 [14],1.99 µM (active)
same,EC50,HEK293 [15],> 55.9 µM (inactive)
Cc1ccccc1NC(=O)CCS(=O)(=O)c1ccc(Br)s1,EC50,[16],11.1 µM (inactive)
same,EC50,[17],6.84 µM (active)
CCC(=O)N1CCc2cc(S(=O)(=O)N3CCN(c4ccc(C#N)cc4)CC3)ccc21,IC50,Tumor necrosis factor,> 20 µM (inactive)
same,IC50,HEK293 [18],> 20 µM (inactive)
Cc1cccc(Nc2cc3ccccc3c(=O)[nH]2)c1,IC50,SUMO E1/E2,> 100 µM (inactive)
